Experimental data: PMC4277729 (Bioorganic & medicinal chemistry letters, 2014)
≈ marks a conversion by molar mass, not a printed value.

Key:
chicken sEH (chxEH) = chicken sEH (chxEH) (Gallus gallus, UniProt Q45QT1); assay: chxEH inhibition, fluorescent substrate PHOME; assay type: biochemical
[1] = solubility by turbidity measurement at 600 nm; assay type: physicochemical; conditions: sodium phosphate buffer, pH 7.4
chxEH [2] = target: T1, chxEH (Gallus gallus, UniProt Q45QT1); assay: FRET-based competitive displacement assay with reporter ligand ACPU
chxEH [3] = target: T1, chxEH; assay: kinetic constants of chxEH for epoxy-fatty acid substrate; assay type: biochemical, chicken; conditions: chxEH's best substrate
[4] = substrate of recombinant purified chicken sEH

COc1ccc2cc(C(C#N)OC(=O)CC3OC3c3ccccc3)ccc2c1 (centres unmarked) [PHOME, (3-phenyl-oxiranyl)-acetic acid cyano-(6-methoxy-naphthalen-2-yl)-methyl ester]
Km (chicken sEH (chxEH); [4]): 1.5 ± 0.3 µM | Vmax (chicken sEH (chxEH); [4]): 60 ± 4 nmol/min/mg

CCC(=O)N1CCC(NC(=O)Nc2ccc(OC(F)(F)F)cc2)CC1 [TPPU]
inhibition of chxEH (chicken sEH (chxEH); inhibitor 100 nM, chxEH 1.4 nM, primary screen, endpoint mode): 15%

O=C(O)CCCCCCCCCCCNC(=O)NC12CC3CC(CC(C3)C1)C2 [AUDA]
solubility [1]: 37.5 to 50 µM (≈ 14.7 to 19.6 µg/mL) | IC50 (chicken sEH (chxEH)): 12 nM

O=C(NC1CCN(C(=O)Cc2cc(=O)oc3cc(O)ccc23)CC1)NC12CC3CC(CC(C3)C1)C2 [ACPU]
Kd (chxEH [2]): 0.283 nM

CCC=CCC1OC1CC=CCC=CCC=CCC=CCCC(=O)O (centres unmarked) [16,17-epoxy-docosapentaenoic acid]
Km (chxEH [3]): 12 ± 3 µM | Vmax (chxEH [3]): 728 ± 97 nmol/min/mg
